Experimental data: patent US20210346524A1, “FUSOGENIC LIPOSOMES FOR SELECTIVE IMAGING OF TUMOR CELLS” (APA- Advanced Technologies Ltd., priority 2018, published 2021)

Experiment: Solubilization of fluorophore in aqueous hydration solution for liposome encapsulation
Assay type: physicochemical

behaviour in phosphate buffered saline (PBS): creates aggregates
SMILES: CC1(C)C(/C=C/C=C/C=C/C=C2\N(CCCCS(=O)(=O)O)c3ccc4ccccc4c3C2(C)C)=[N+](CCCCS(=O)(=O)[O-])c2ccc3ccccc3c21 [ICG, indocyanine green]
